Results: patent US8507010B2, “Compositions comprising quinazoline derivatives” (Shanghai Allist Pharmaceuticals, Inc., priority 2008, dated 2013)
Blank lines part the entries; values can stand above or below the compound they belong to.

How the values were obtained:
[1] = in vivo; conditions: male, SD, rat; for bioavailability: absolute bioavailability
Protocol: Intragastric administration (ig): 16 healthy SD rats (Shanghai Super-B&K Laboratory Animal Corp. Ltd., grade SPF), male, weighted 200-250 g, randomly divided into four groups, were each administered intragastrically with a drug: the compound prepared according to Example 1 (21.68 mg/kg), crystalline form A, crystalline form B, or crystalline form C (30 mg/kg) of p-toluenesulfonate of said compound. The blood samples were collected at 0.5 h, 1.0 h, 1.5 h, 2.0 h, 3.0 h, 5.0 h, 7.0 h, 9.0 h, 12 h, and 24 h after administration, which were then isolated to prepare the plasma. The concentrations of the drugs in the plasma were determined by means of liquid phase chromatography/tandem mass spectrometer (Agilent 1200LC/6410B), and the concentration-time curve was obtained.

[2] = system: human epidermoid squamous cancer cell A431; assay: Tumor-inhibitory effect on human epidermoid squamous cancer cell A431 grafted to a BALB/cA nude mouse; type: in vivo; conditions: for Tumor-inhibitory rate % / Weight of animals (g) (tumor-off) / Weight of tumor (g) x ± SD: 13 successive days, 23 days after grafting; for inhibitory effect on the tumor (in words): A431 grafted to BALB/cA nude mouse, high expression of EGFR (erbB-1), p-toluenesulfonate
Protocol: A well-developed solid tumor A431 was selected and incised into several uniform pieces with the size of 2-3 mm under sterile conditions, with one piece being grafted subcutaneously to the right armpit of each of the BALB/cA nude mice using a trocar. 7 days after the grafting, the mice were grouped randomly and were intragastrically administrated through mouth for 13 successive days. The long axis (a) and the short axis (b) of the tumors were measured with a vernier caliper every 4 days. According to the formula V=ab^2/2, the volume of the tumor (mm^3) could be calculated. The tested animals were neck-off killed 23 days after the grafting, and anatomized to obtain the tumors. The tumors were weighed, and the tumor inhibition rate was calculated.
(§1) Human epidermoid squamous carcinoma A431 grafted to BALB/cA nude mouse is an animal model having high expression of EGFR (erbB-1), and human ovarian cancer SKOV-3 grafted to BALB/cA nude mouse is an animal model having high expression of erbB-2.

[3] = system: human ovarian cancer SKOV-3; assay: Tumor-inhibitory effect on human ovarian cancer SKOV-3 grafted to a BALB/cA nude mouse; type: in vivo; conditions: for RTV: RTV=Vt/V0; for Volume of tumor (mm^3) V21: after administration for consecutive 3 weeks; for Volume of tumor (mm^3) V0: prior to the administration; for inhibitory effect on the tumor (in words): SKOV-3 grafted to BALB/cA nude mouse, high expression of erbB-2, p-toluenesulfonate
Protocol: A SKOV-3 tumor tissue in vigorous growth period was selected and incised into uniform pieces with the size of about 1.5 mm^3, which was grafted subcutaneously to the right armpit of a BALB/cA nude mouse (Shanghai Institute of Materia Medica, Chinese Academy of Sciences, grade SPF) with a trocar under sterile conditions. The diameters of the grafted tumors on the nude mouse were measured with a vernier caliper. The animals were grouped randomly when the tumors grew to a size of 80 to 100 mm^3. The tested animal groups were intragastrically administered through mouth as mentioned above once a day for 3 consecutive weeks. The positive control drug MMC (Mitomycin) was intravenously administered once on the first day with a dose of 5 mg/kg (0.9% sterile sodium chloride solution). The negative control group was administered with 0.5% CMC-Na (Carboxymethyl Cellulose-Sodium) with a dose of 0.2 mL/per mouse. The long axis (a) and the short axis (b) of the tumors were measured twice every week and the nude mice were weighed at the same time. According to the formula V=ab^2/2, the volume (mm^3) of the tumor could be calculated. Relative tumor volume (RTV) was calculated from the measurement result (according to the formula: RTV=Vt/V0, wherein V0 is the tumor volume measured upon the grouping time of administration, and Vt is the tumor volume measured each time). The relative tumor proliferation rate T/C(%) was chosen as the index of evaluation of anti-tumor activity, by the formula: T/C(%)=(TRTV/CRTV)×100 TRTV: RTV of the treated group; CRTV: RTV of the negative control group
as §1

[4] = Study of stability at high temperature (60° C.); type: physicochemical; conditions: p-toluenesulfonate; for Purity (%): 60° C.
[5] = Study of light stability; type: physicochemical; conditions: p-toluenesulfonate; for Purity (%): illumination 45001×±5001×
Text: The purity of the crystalline form A was detected at day 0, day 10 and day 30, thereby deducing light stability of crystalline form A. The light stability of each of crystalline forms B and C is obtained by the same approach.

[6] = Study of hygroscopicity (92.5% humidity); type: physicochemical; conditions: p-toluenesulfonate; for Purity (%): 92.5% humidity
[7] = molecular target: erbB-2 kinase (Homo sapiens, UniProt P04626); conditions: stated in CN 200610023526.7 / WO 2007/082434; cited from earlier work
Sequence of erbB-2 kinase (P04626 23-1255): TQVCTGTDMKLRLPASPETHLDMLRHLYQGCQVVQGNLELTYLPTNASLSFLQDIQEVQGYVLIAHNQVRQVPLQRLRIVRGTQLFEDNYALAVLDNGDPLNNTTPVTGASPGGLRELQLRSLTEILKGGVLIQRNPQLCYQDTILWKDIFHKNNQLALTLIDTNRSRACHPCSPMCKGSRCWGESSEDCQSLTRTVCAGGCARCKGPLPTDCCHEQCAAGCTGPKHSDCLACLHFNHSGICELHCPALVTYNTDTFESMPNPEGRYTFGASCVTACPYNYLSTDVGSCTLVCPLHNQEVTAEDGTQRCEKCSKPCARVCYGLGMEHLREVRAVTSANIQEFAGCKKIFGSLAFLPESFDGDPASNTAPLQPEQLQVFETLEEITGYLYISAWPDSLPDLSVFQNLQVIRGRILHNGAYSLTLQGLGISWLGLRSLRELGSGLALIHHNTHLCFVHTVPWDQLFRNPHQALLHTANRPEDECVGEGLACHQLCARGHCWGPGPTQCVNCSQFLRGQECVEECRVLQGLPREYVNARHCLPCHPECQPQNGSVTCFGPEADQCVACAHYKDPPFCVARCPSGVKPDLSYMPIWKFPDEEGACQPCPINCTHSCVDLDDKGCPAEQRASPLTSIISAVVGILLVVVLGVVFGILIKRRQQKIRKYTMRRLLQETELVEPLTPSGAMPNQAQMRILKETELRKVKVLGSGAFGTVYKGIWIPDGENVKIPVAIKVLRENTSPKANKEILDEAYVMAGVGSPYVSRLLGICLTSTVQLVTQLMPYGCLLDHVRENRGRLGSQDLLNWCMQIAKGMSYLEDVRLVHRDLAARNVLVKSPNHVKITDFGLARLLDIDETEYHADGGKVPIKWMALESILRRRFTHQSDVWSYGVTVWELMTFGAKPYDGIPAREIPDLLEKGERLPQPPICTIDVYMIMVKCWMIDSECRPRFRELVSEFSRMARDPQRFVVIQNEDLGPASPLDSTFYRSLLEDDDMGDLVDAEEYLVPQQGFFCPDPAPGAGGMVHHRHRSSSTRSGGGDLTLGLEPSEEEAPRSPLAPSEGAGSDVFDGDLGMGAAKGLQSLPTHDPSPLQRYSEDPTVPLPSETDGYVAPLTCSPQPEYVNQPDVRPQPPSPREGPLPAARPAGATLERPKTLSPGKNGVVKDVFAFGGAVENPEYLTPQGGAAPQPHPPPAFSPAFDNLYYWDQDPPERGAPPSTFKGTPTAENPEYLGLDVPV

[8] = system: human epidermoid squamous carcinoma cell A431; conditions: stated in CN 200610023526.7 / WO 2007/082434; cited from earlier work
[9] = system: human breast cancer cell BT-474; conditions: stated in CN 200610023526.7 / WO 2007/082434; cited from earlier work
[10] = system: human epidermoid squamous carcinoma cell A431; conditions: stated in CN 200610023526.7 / WO 2007/082434; cited from earlier work; remark: listed apart in the source
[11] = Test on the drug absorption in SD rat, intravenous injection (iv); type: in vivo; conditions: male, 5 mg/kg, plasma
Protocol: Intravenous injection (iv): 4 healthy SD rats, male, weighted 200-250 g, were intravenously administered with p-toluenesulfonate of the compound of Example 1 (5 mg/kg). The blood samples were collected at 5 min, 15 min, 0.5 h, 1.5 h, 2.0 h, 3.0 h, 4.0 h, 5.0 h and 7.0 h after administration, which were then isolated to prepare the plasma. The concentrations of the drugs in the plasma were determined by means of liquid phase chromatography/tandem mass spectrometer and the concentration-time curve was obtained.

[12] = 50 mg/kg ig once a day for 3 weeks
[13] = 100 mg/kg ig once a day for 3 weeks
[14] = 200 mg/kg ig once a day for 3 weeks
[15] = listed as p-toluenesulfonate of N-{-4-[3-chloro-4-(3-fluoro-benzyloxy)phenylamino]quinazol

bioavailability [1]: 8.75%
AUC(0-t) ([1]; po, 30 mg/kg): 977 ng·h/mL
Cmax ([1]; po, 30 mg/kg): 187 ng/mL
T1/2 ([1]; po, 30 mg/kg): 1.49 h
Tmax ([1]; po, 30 mg/kg): 2.83 h
Weight of animals (g) (tumor-off) ([2]; 25 mg/kg ig): 21.58 ± 2.18 g
Weight of animals (g) (tumor-off) ([2]; 50 mg/kg ig): 22.87 ± 3.96 g
Weight of animals (g) (tumor-off) ([2]; 100 mg/kg ig): 22.13 ± 1.83 g
Purity (%) ([4]; day 0): 98.64%
Purity (%) ([4]; day 10): 98.64%
Purity (%) ([4]; day 30): 98.64%
thermal stability (in words) ([4]; stored at 60° C. for 1 month): excellent thermal stability
light stability (in words) ([5]; illumination 45001×±5001× for 1 month): good light stability
Purity (%) ([5]; day 0): 98.64%
Purity (%) ([5]; day 10): 98.16%
Purity (%) ([5]; day 30): 97.24%
stability in highly humid surroundings (in words) ([6]; 92.5% humidity for 1 month): very stable
Purity (%) ([6]; day 0): 98.64%
Purity (%) ([6]; day 10): 98.62%
Purity (%) ([6]; day 30): 98.62%
Structure (SMILES): C=CC(=O)Nc1ccc2ncnc(Nc3ccc(OCc4cccc(F)c4)c(Cl)c3)c2c1.Cc1ccc(S(=O)(=O)O)cc1 [Crystalline form A, N-{4-[3-chloro-4-(3-fluoro-benzyloxy)phenylamino]quinazolin-6-yl}-acrylamide p-toluenesulfonate]
Tumor-inhibitory rate % ([2]; 25 mg/kg ig): 29.99%
Weight of tumor (g) x ± SD ([2]; 25 mg/kg ig): 0.79 ± 0.20 g
Tumor-inhibitory rate % ([2]; 50 mg/kg ig): 38.67%
Weight of tumor (g) x ± SD ([2]; 50 mg/kg ig): 0.69 ± 0.17 g
Tumor-inhibitory rate % ([2]; 100 mg/kg ig): 43.63%
Weight of tumor (g) x ± SD ([2]; 100 mg/kg ig): 0.64 ± 0.23 g
T/C (%) [3, 12]: 53.0%
RTV [3, 12]: 5.1 ± 1.7
Volume of tumor (mm^3) V21 ([3]; 50 mg/kg ig once a day): 421 ± 89 mm^3
Volume of tumor (mm^3) V0 ([3]; 50 mg/kg ig): 79 ± 28 mm^3
T/C (%) [3, 13]: 45.0%
RTV [3, 13]: 4.3 ± 1.3
Volume of tumor (mm^3) V21 ([3]; 100 mg/kg ig once a day): 345 ± 88 mm^3
Volume of tumor (mm^3) V0 ([3]; 100 mg/kg ig): 87 ± 41 mm^3
T/C (%) [3, 14]: 36.9%
RTV [3, 14]: 3.5 ± 0.8
Volume of tumor (mm^3) V21 ([3]; 200 mg/kg ig once a day): 303 ± 72 mm^3
Volume of tumor (mm^3) V0 ([3]; 200 mg/kg ig): 86 ± 13 mm^3
inhibitory effect on the tumor (in words) [3]: significant inhibitory effect on the tumor

bioavailability [1]: 0.95%
AUC(0-t) ([1]; po, 21.68 mg/kg, AUC0-t): 106 ng·h/mL
Cmax ([1]; po, 21.68 mg/kg, Cmax): 32 ng/mL
half-life ([1]; po, 21.68 mg/kg, T1/2): 1.81 h
Tmax ([1]; po, 21.68 mg/kg, Tmax): 0.75 h
Structure (SMILES): C=CC(=O)Nc1ccc2ncnc(Nc3ccc(OCc4cccc(F)c4)c(Cl)c3)c2c1 [The compound of Example 1, N-{4-[3-chloro-4-(3-fluoro-benzyloxy)phenylamino]quinazolin-6-yl}-acrylamide]
inhibitory activity against erbB-2 kinase (in words) [7]: excellent inhibitory activity
inhibitory effect on growth of A431 cells (in words) [8]: remarkable inhibitory effect
inhibitory effect on growth of BT-474 cells (in words) [9]: remarkable inhibitory effect
anti-tumor effect on A431 grafted to a nude mouse (in words) [10]: obvious anti-tumor effect

AUC(0-t) [11]: 1860 ng·h/mL
Cmax [11]: 1740 ng/mL
Tmax [11]: 4.98 min
half-life [11]: 1.55 h
Structure (SMILES): C=CC(=O)Nc1ccc2ncnc(Nc3ccc(OCc4cccc(F)c4)c(Cl)c3)c2c1.Cc1ccc(S(=O)(=O)O)cc1 [p-toluene sulfonate, N-{4-[3-chloro-4-(3-fluoro-benzyloxy)phenylamino]quinazolin-6-yl}-acrylamide p-toluenesulfonate]
inhibitory effect on the tumor (in words) ([2]; listed as p-toluenesulfonate of N-{-4-[3-chloro-4-(3-fluoro-benzyloxy)phenylamino]-quinazo): significant inhibitory effect on the tumor
inhibitory effect on the tumor (in words) [2, 15]: remarkable inhibitory effect on tumor growth
inhibitory effect on the tumor (in words) [3, 15]: remarkable inhibitory effect on tumor growth
